Measurements as given in ChEMBL document CHEMBL3352792, “Fragment based search for small molecule inhibitors of HIV-1 Tat-TAR” (Bioorg Med Chem Lett, 2014).
Structures can show the parent of a compound that is named as a salt. Calls of active or inactive are those of the source. No cut-off for these calls is given here.

How the values were obtained:
[1] = biological target: Nucleic Acid; assay: Binding affinity to HIV-1 TAR RNA by Tat-TAR fluorimetric competition assay; format: nucleic-acid assay, Human immunodeficiency virus 1
[2] = system: Nucleic Acid; assay: Binding affinity to HIV-1 TAR RNA using 2 equivalents of compound by 1H NMR titration method; format: nucleic-acid assay; conditions: Human immunodeficiency virus 1
[3] = system: Nucleic Acid; assay: Binding affinity to HIV-1 TAR RNA at 0.4 mM by 1H NMR titration method; format: nucleic-acid assay; conditions: Human immunodeficiency virus 1

Row | IC50 [1] | Activity [2] | Activity [3] | Compound
1 | > 20000 µM |  |  | N=C(N)N [GUANIDINE HYDROCHLORIDE]
2 | 400 µM |  |  | Nc1nc(N)c2ccccc2n1
3 | 110 µM |  |  | Nc1ccc2c(N)nc(N)nc2c1
4 | 50 µM |  |  | NCc1cnc2nc(N)nc(N)c2n1
5 | > 2000 µM |  |  | Nc1ncc[nH]1
6 | > 20000 µM |  |  | Nc1nc2ccccc2c(=O)[nH]1
7 | 700 µM |  |  | Nc1cccc2c(N)nccc12
8 | > 11000 µM |  |  | Nc1nc2ccccc2[nH]1
9 | 50 µM |  |  | Nc1nc(N)c2cc(NCc3ccccc3)ccc2n1
10 | 50 µM |  |  | Nc1nc(N)c2c(N)c(N)ccc2n1
11 | 70 µM |  |  | NCc1ccc2nc(N)nc(N)c2c1
12 | 40 µM | Active |  | Nc1ccc2nc(N)nc(N)c2c1 [QUINAZOLINE-2,4,6-TRIAMINE]
13 | > 20000 µM |  |  | N=C(N)NCc1ccccc1
14 | 750 µM |  |  | Nc1nccc2ccc(O)cc12
15 | 50 µM |  |  | NC1=Nc2cccc3cccc(c23)N1
16 | 50 µM |  |  | CNC1=Nc2cccc3cccc(c23)N1
17 | > 20000 µM |  |  | Nc1ncccn1
18 | 2000 µM |  |  | Nc1ccc2ccncc2c1
19 | 45 µM |  |  | CN(C)c1ccc2nc(N)nc(N)c2c1
20 | 150 µM |  |  | CN(C)C1=Nc2cccc3cccc(c23)N1
21 | 130 µM |  |  | CN(C)c1nc(N(C)C)c2cc(N)ccc2n1
22 | > 20000 µM |  |  | N=C(N)Nc1ccccc1
23 | > 10000 µM |  |  | NC1=Nc2ccccc2CN1
24 | 150 µM |  | Active | Nc1ccc2ccnc(N)c2c1
25 | 2000 µM |  |  | Cc1ccc2nc(N)nc(N)c2c1

Row | Compound | IC50 [1] | Activity [2] | Activity [3]
26 | Nc1ccccn1 [2-AMINOPYRIDINE] | > 20000 µM |  | 
27 | Nc1nc(N)c2cc(CN3CCNCC3)ccc2n1 | 60 µM |  | 
28 | c1ccc(CNC2=NCCN2)cc1 | > 20000 µM |  | 
